Measurements published in ChEMBL document CHEMBL5036349, “Development of potent dual PDK1/AurA kinase inhibitors for cancer therapy: Lead-optimization, structural insights, and ADME-Tox profile” (Eur J Med Chem, 2021).
Calls of active or inactive are those of the source. The calls are words filed in the database; no cut-off is given here.

Experiments:
[1] = test system: HCT-116; experiment: Cytotoxicity against human HCT-116 cells at 30 uM assessed as cell proliferation rate measured after 72 hrs by MTT assay relative to control; format: functional
[2] = test system: Rec1; experiment: Cytotoxicity against human REC1 cells measured after 72 hrs by MTT assay; format: functional, cell-based; details: Rec1, 72 h
[3] = test system: Rec1; experiment: Cytotoxicity against human REC1 cells at 30 uM assessed as cell proliferation rate measured after 72 hrs by MTT assay relative to control; format: functional
[4] = test system: SK-N-MC; experiment: Cytotoxicity against human SK-N-MC cells at 30 uM assessed as cell proliferation rate measured after 72 hrs by MTT assay relative to control; format: functional
[5] = Cytotoxicity against human 6647 cells at 30 uM assessed as cell proliferation rate measured after 72 hrs by MTT assay relative to control; format: functional
[6] = test system: HCT-116; experiment: Anticlonogenic activity against human HCT-116 cells assessed as reduction of cell survival at 0.5 to 20 uM measured after 10 days by SRB staining clonogenic survival assay; format: functional, cell-based; details: dose 0.5-20 µM, time 10.0 day
[7] = Volume of distribution in CD-1 mouse at 10 mg/kg iv measured by UPLC-MS/MS method; format: ADME, organism-based; details: in vivo
[8] = Cmax in CD-1 mouse at 10 mg/kg iv measured by UPLC-MS/MS method; format: ADME, organism-based; parameters: route intravenous, dose 10 mg/kg; details: in vivo
[9] = test system: SK-N-MC; experiment: Inhibition of human Akt in human SK-N-MC cell assessed as inhibition of Akt phosphorylation at 1 uM measured after 30 min by Western blot analysis; format: tissue-based
[10] = molecular target: Ribosomal protein S6 kinase alpha-3 (Homo sapiens) (UniProt P51812); experiment: Inhibition of human RSK2 in human SK-N-MC cell assessed as inhibition of RSK2 phosphorylation at 1 uM measured after 30 min by Western blot analysis; format: tissue-based
Ribosomal protein S6 kinase alpha-3 (Homo sapiens), sequence (P51812 whole entry): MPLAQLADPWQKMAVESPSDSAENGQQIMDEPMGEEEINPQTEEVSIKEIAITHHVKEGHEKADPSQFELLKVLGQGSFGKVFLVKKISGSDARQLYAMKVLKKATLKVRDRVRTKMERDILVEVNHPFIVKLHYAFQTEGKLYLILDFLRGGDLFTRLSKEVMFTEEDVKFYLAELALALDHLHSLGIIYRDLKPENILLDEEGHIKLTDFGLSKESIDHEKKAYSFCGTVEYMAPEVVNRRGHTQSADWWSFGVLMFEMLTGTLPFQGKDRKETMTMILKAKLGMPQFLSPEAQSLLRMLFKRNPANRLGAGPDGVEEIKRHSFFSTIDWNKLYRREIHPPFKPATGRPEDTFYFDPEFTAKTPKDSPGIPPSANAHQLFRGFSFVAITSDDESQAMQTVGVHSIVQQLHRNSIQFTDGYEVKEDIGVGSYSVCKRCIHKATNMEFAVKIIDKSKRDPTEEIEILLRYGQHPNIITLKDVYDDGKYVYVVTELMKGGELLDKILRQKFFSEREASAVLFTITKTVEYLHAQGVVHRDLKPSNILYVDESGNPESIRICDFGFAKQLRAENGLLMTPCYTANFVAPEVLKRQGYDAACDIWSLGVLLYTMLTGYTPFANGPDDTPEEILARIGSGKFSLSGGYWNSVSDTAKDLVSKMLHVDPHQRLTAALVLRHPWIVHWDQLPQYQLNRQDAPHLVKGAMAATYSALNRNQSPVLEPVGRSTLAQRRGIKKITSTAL

[11] = test system: SK-N-MC; experiment: Upregulation of RB1 protein expression level in human SK-N-MC cell at 1 uM incubated for 2 hrs by western blot analysis; format: functional, tissue-based

Work on O=C1Nc2ccc(NC(=O)[C@H](NC(=O)c3cccn(Cc4ccc(F)c(F)c4)c3=O)c3ccccc3)cc2/C1=C/c1cnc[nH]1 (stereo in doubt) yielded an Emax at 30 µM [1] of 60%, an IC50 [2] of 11 µM and an Emax at 30 µM [3] of 55%. The Emax at 30 µM [4] was 75%, the Emax at 30 µM [5] was 84% and the Activity [6] was “Dose-Dependent Effect”. For the same compound, the Vd [7] was 0.37 L, the Cmax [8] was 1300 ng/mL and the inhibition [9] was “Active”. For the same compound, the inhibition [10] was “Active” and the Activity [11] was “Active”.
